Laboratory results taken from US6942874B2, “Nucleotide compounds that block the bitter taste of oral compositions” (Linguagen Corp., priority 2001, dated 2005).

Tested on: transducin
Test: [35S] GTPγS binding assay: transducin activation by bitter-stimulated taste membranes
Type: biochemical, bovine
Text: Since G proteins have an intrinsic GTPase activity, which terminates the activation cycle, a radioactive nonhydrolyzable analogue of GTR such as [^35S] GTPγS or [^3H] GppNHp must be used. To test for the inhibitory activity of nucleotide compounds, several modifications of the standard [^35S] GTPγS binding assay were made to efficiently measure activation by bitter responsive receptors that couple to gustducin or transducin ([…] et al., in preparation). To maximize the bitter dependent change in radiolabel uptake GDP:GTPγS ratios, buffer composition, and specific activity of the [^35S] GTPγS were adjusted. […] Radionucleotide bound to transducin can be measured by filter binding followed by washing to remove unbound label (Asano et al., 1984 Biochemistry 23:5460-5467). The final concentrations in the [^35S] GTPγS binding assay mix are 10 mM HEPES pH 7.5, 5 mM MgCl2, 50 mM NaCl, 1 mM dithiolthreitol, 10 μM GDP, 1 μM [^35S] GTPγS (0.1 μCi/sample), 0.5 μg/0.05 ml transducin heterotrimer. A 2× stock of the above mixture is added to the bitter compound. Reactions are started by addition of 5 μg/0.05 ml bovine circumvallate membranes and the sample volume is adjusted to […] with water. Samples are incubated at room temperature (25±2° C. for 2 hours). Long incubation times are necessary due to the low density of receptors in the membranes. Similar results are obtained with high dilutions of rhodopsin. Samples are then filtered through BA-85 nitrocellulose filters and washed 3 times with 3 ml of 50 mM Tris-HCl pH 7.5, 4 mM MgCl2, and 0.1 M NaCl. Filters are dried, placed in scintillation fluid and the radioactivity is determined by scintillation counting. Experiments are performed in triplicate with several concentrations of the tastant of interest. Controls include: (i) a rhodopsin positive control, (ii) a no tastant negative control and (iii) a no membrane control +/-tastants.

How did the “[35S] GTPγS radiolabel binding to transducin” value (10 mM, with circumvallate membranes, vs membranes alone, Student's t-test, FIG. 1A) turn out when `CC[N+](CC)(CC(=O)Nc1c(C)cccc1C)Cc1ccccc1` [denatonium] was run?
The value was “increased radiolabel binding”.

What about the “activation of transducin relative to maximal rhodopsin stimulated [35S] GTPγS binding” value (denatonium 10 mM, with bovine circumvallate membranes, FIG. 1A) of the same molecule?
Its value is about 40%.

What about the “concentration dependence of transducin activation” value (in the presence of circumvallate membranes, FIG. 1B) of the same molecule?
The value was “concentration dependent activation of transducin”.
